According to paper PMC3562592 (Journal of the American Chemical Society, 2012):

Molecular target: T1, FAAH (Rattus norvegicus, UniProt P97612)
T1 sequence (P97612 1-579): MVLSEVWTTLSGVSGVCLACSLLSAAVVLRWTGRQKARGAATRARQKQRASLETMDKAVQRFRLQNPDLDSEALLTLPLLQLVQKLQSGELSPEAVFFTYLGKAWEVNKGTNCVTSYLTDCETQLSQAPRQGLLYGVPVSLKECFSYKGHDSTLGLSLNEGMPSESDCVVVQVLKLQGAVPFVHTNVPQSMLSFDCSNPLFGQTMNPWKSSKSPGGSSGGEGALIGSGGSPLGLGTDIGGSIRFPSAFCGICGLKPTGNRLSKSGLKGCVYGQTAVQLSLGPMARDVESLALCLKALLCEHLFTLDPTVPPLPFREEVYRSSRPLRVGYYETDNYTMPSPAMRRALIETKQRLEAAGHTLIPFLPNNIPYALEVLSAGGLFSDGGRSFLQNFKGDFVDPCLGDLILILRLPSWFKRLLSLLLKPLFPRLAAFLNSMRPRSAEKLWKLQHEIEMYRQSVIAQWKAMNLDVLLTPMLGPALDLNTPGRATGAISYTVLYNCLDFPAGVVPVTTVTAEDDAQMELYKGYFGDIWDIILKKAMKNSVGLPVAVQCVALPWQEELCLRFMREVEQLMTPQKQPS
Assay: WaterLOGSY NMR binding to FAAH

- binding to FAAH (WaterLOGSY signals) (enzyme pre-incubated with URB597): did not alter such binding
- binding to FAAH (WaterLOGSY signals) (without URB597): able to bind FAAH
Structure (SMILES): CC(C(=O)O)c1ccc2c(c1)[nH]c1ccc(Cl)cc12 (racemic) [carprofen, (RS)-2-(6-chloro-9H-carbazol-2-yl)propanoic acid]
